Test results published in the supplement of paper PMC13380429.
± gives the standard deviation of the averaged measurements.

Tests used:
Conditions in all cases: 72 h
HepG2 [1] = test: cell viability relative to DMSO; higher = less toxic
U2OS [2] = test: as above
Vero E6 [3] = test: as above
Calu-3 [4] = test: as above
Caco-2 [5] = test: as above
HepG2 [6] = test: drug sensitivity score (DSS) for viability; higher = more toxic; extreme values may be limits of the assay
U2OS [7] = test: as above
Vero E6 [8] = test: as above
Calu-3 [9] = test: as above
Caco-2 [10] = test: as above
HepG2 [11] = test: relative viability EC50 (midpoint between 100% and the lowest measured viability); higher = less toxic
U2OS [12] = test: as above
Vero E6 [13] = test: as above
Calu-3 [14] = test: as above
Caco-2 [15] = test: as above

C[C@@]1(F)[C@H](O)[C@@H](CO)O[C@H]1n1ccc(N)nc1=O [PSI-6130]
cell viability (HepG2 [1]; 1 nM): 103% | cell viability (HepG2 [1]; 10 nM): 91.8% | cell viability (HepG2 [1]; 100 nM): 106% | cell viability (HepG2 [1]; 1000 nM): 100% | cell viability (HepG2 [1]; 10000 nM): 107% | cell viability (U2OS [2]; 1 nM): 95.5% | cell viability (U2OS [2]; 10 nM): 101% | cell viability (U2OS [2]; 100 nM): 96.9% | cell viability (U2OS [2]; 1000 nM): 100% | cell viability (U2OS [2]; 10000 nM): 107% | cell viability (Vero E6 [3]; 1 nM): 101% | cell viability (Vero E6 [3]; 10 nM): 93.3% | cell viability (Vero E6 [3]; 100 nM): 100% | cell viability (Vero E6 [3]; 1000 nM): 92.5% | cell viability (Vero E6 [3]; 10000 nM): 106% | cell viability (Calu-3 [4]; 1 nM): 99.3% | cell viability (Calu-3 [4]; 10 nM): 99.6% | cell viability (Calu-3 [4]; 100 nM): 96% | cell viability (Calu-3 [4]; 1000 nM): 100% | cell viability (Calu-3 [4]; 10000 nM): 96.7% | cell viability (Caco-2 [5]; 1 nM): 94.8% | cell viability (Caco-2 [5]; 10 nM): 96.8% | cell viability (Caco-2 [5]; 100 nM): 94.7% | cell viability (Caco-2 [5]; 1000 nM): 103% | cell viability (Caco-2 [5]; 10000 nM): 108% | drug sensitivity score (HepG2 [6]): 0 | drug sensitivity score (U2OS [7]): 0 | drug sensitivity score (Vero E6 [8]): 0 | drug sensitivity score (Calu-3 [9]): 0 | drug sensitivity score (Caco-2 [10]): 0 | relative viability EC50 (HepG2 [11]): > 10 µM | relative viability EC50 (U2OS [12]): > 10 µM | relative viability EC50 (Vero E6 [13]): > 10 µM | relative viability EC50 (Calu-3 [14]): > 10 µM | relative viability EC50 (Caco-2 [15]): > 10 µM

O=C(O)/C=C\c1c[nH]cn1 [cis-Urocanic acid]
cell viability (HepG2 [1]; 1 nM): 97.1% | cell viability (HepG2 [1]; 10 nM): 95.9% | cell viability (HepG2 [1]; 100 nM): 88.1% | cell viability (HepG2 [1]; 1000 nM): 102% | cell viability (HepG2 [1]; 10000 nM): 95.2% | cell viability (U2OS [2]; 1 nM): 99.2 ± 3% | cell viability (U2OS [2]; 10 nM): 97.5 ± 2.8% | cell viability (U2OS [2]; 100 nM): 97.7 ± 1.1% | cell viability (U2OS [2]; 1000 nM): 97.4 ± 4% | cell viability (U2OS [2]; 10000 nM): 100 ± 1.8% | cell viability (Vero E6 [3]; 1 nM): 99.5 ± 3.1% | cell viability (Vero E6 [3]; 10 nM): 99.8% | cell viability (Vero E6 [3]; 100 nM): 100 ± 4.2% | cell viability (Vero E6 [3]; 1000 nM): 100.8 ± 0.64% | cell viability (Vero E6 [3]; 10000 nM): 99 ± 1.8% | cell viability (Calu-3 [4]; 1 nM): 107 ± 4.3% | cell viability (Calu-3 [4]; 10 nM): 108 ± 11% | cell viability (Calu-3 [4]; 100 nM): 100 ± 4.8% | cell viability (Calu-3 [4]; 1000 nM): 98 ± 8.6% | cell viability (Calu-3 [4]; 10000 nM): 96.6 ± 3% | cell viability (Caco-2 [5]; 1 nM): 93.8 ± 14% | cell viability (Caco-2 [5]; 10 nM): 96.7 ± 3.2% | cell viability (Caco-2 [5]; 100 nM): 92.3 ± 7.2% | cell viability (Caco-2 [5]; 1000 nM): 91.5 ± 8.9% | cell viability (Caco-2 [5]; 10000 nM): 98.1 ± 5.9% | drug sensitivity score (HepG2 [6]): 0 | drug sensitivity score (U2OS [7]): 0 | drug sensitivity score (Vero E6 [8]): 0 | drug sensitivity score (Calu-3 [9]): 0 | drug sensitivity score (Caco-2 [10]): 1.25 ± 1.8 | relative viability EC50 (HepG2 [11]): > 10 µM | relative viability EC50 (U2OS [12]): > 10 µM | relative viability EC50 (Vero E6 [13]): > 10 µM | relative viability EC50 (Calu-3 [14]): > 10 µM | relative viability EC50 (Caco-2 [15]): > 10 µM

CN(C)C(=O)Oc1ccc[n+](C)c1 [mestinon]
cell viability (HepG2 [1]; 1 nM): 95.1% | cell viability (HepG2 [1]; 10 nM): 93% | cell viability (HepG2 [1]; 100 nM): 101% | cell viability (HepG2 [1]; 1000 nM): 91.2% | cell viability (HepG2 [1]; 10000 nM): 96.3% | cell viability (U2OS [2]; 1 nM): 104% | cell viability (U2OS [2]; 10 nM): 102% | cell viability (U2OS [2]; 100 nM): 106% | cell viability (U2OS [2]; 1000 nM): 98.6% | cell viability (U2OS [2]; 10000 nM): 104% | cell viability (Vero E6 [3]; 1 nM): 99.8% | cell viability (Vero E6 [3]; 10 nM): 108% | cell viability (Vero E6 [3]; 100 nM): 102% | cell viability (Vero E6 [3]; 1000 nM): 104% | cell viability (Vero E6 [3]; 10000 nM): 93.5% | cell viability (Calu-3 [4]; 1 nM): 96.5% | cell viability (Calu-3 [4]; 10 nM): 95.1% | cell viability (Calu-3 [4]; 100 nM): 102% | cell viability (Calu-3 [4]; 1000 nM): 93.7% | cell viability (Calu-3 [4]; 10000 nM): 94.5% | cell viability (Caco-2 [5]; 1 nM): 91.5% | cell viability (Caco-2 [5]; 10 nM): 95.9% | cell viability (Caco-2 [5]; 100 nM): 107% | cell viability (Caco-2 [5]; 1000 nM): 99.8% | cell viability (Caco-2 [5]; 10000 nM): 99.1% | drug sensitivity score (HepG2 [6]): 0 | drug sensitivity score (U2OS [7]): 0 | drug sensitivity score (Vero E6 [8]): 0 | drug sensitivity score (Calu-3 [9]): 0 | drug sensitivity score (Caco-2 [10]): 0 | relative viability EC50 (HepG2 [11]): > 10 µM | relative viability EC50 (U2OS [12]): > 10 µM | relative viability EC50 (Vero E6 [13]): > 10 µM | relative viability EC50 (Calu-3 [14]): > 10 µM | relative viability EC50 (Caco-2 [15]): > 10 µM

CCC(=O)O[C@@H](O[P@@](=O)(CCCCc1ccccc1)CC(=O)N1C[C@H](C2CCCCC2)C[C@H]1C(=O)O)C(C)C [fosinopril]
cell viability (HepG2 [1]; 1 nM): 103% | cell viability (HepG2 [1]; 10 nM): 92.7% | cell viability (HepG2 [1]; 100 nM): 93.7% | cell viability (HepG2 [1]; 1000 nM): 103% | cell viability (HepG2 [1]; 10000 nM): 97.9% | cell viability (U2OS [2]; 1 nM): 103% | cell viability (U2OS [2]; 10 nM): 97.2% | cell viability (U2OS [2]; 100 nM): 105% | cell viability (U2OS [2]; 1000 nM): 97.7% | cell viability (U2OS [2]; 10000 nM): 104% | cell viability (Vero E6 [3]; 1 nM): 99.8% | cell viability (Vero E6 [3]; 10 nM): 97.8% | cell viability (Vero E6 [3]; 100 nM): 92.7% | cell viability (Vero E6 [3]; 1000 nM): 95.4% | cell viability (Vero E6 [3]; 10000 nM): 99.6% | cell viability (Calu-3 [4]; 1 nM): 98.3% | cell viability (Calu-3 [4]; 10 nM): 89.7% | cell viability (Calu-3 [4]; 100 nM): 103% | cell viability (Calu-3 [4]; 1000 nM): 85.7% | cell viability (Calu-3 [4]; 10000 nM): 100% | cell viability (Caco-2 [5]; 1 nM): 100% | cell viability (Caco-2 [5]; 10 nM): 95.3% | cell viability (Caco-2 [5]; 100 nM): 99.3% | cell viability (Caco-2 [5]; 1000 nM): 92.7% | cell viability (Caco-2 [5]; 10000 nM): 103% | drug sensitivity score (HepG2 [6]): 0 | drug sensitivity score (U2OS [7]): 0 | drug sensitivity score (Vero E6 [8]): 0 | drug sensitivity score (Calu-3 [9]): 0 | drug sensitivity score (Caco-2 [10]): 0 | relative viability EC50 (HepG2 [11]): > 10 µM | relative viability EC50 (U2OS [12]): > 10 µM | relative viability EC50 (Vero E6 [13]): > 10 µM | relative viability EC50 (Calu-3 [14]): > 10 µM | relative viability EC50 (Caco-2 [15]): > 10 µM
